What was measured:
[1] = Plasma concentrations (pharmacokinetics) after sc injection in DIO-mice; format: in vivo, mouse
Description: The animal experiments were performed as described recently. […] Animal care and treatments were conducted in accordance with established guidelines and protocols approved by the Lady Davis Institute (protocol # 5951) and McGill University's Animal Ethics Committee. Mice were housed one mouse per cage with ad libitum access to tap water and high- or low fat diet, respectively, throughout the studies. […] The size of the tumor allografts was measured three times per week and the volume calculated using the following formula: length × width^2 × 0.52. Based on the tumor volume data for each mouse, we calculated the area under the tumor growth curves (tumor growth AUC). At termination of the experiments, mice were anesthetized with isoflurane. Blood was collected by cardiac puncture and immediately after euthanasia by cervical dislocation, samples of the liver, colon, gastrocnemius muscle and the MC38 cell tumor allografts were dissected out and snap-frozen in liquid nitrogen for later preparation of tissue lysate. Before experiments were initiated, the systemic levels of mouse insulin were measured using a Rat/Mouse Insulin ELISA kit (Millipore Corp., Bilerica, MA, USA), according to manufacturer's instructions. […] Mouse C-peptide was assayed with Rat/Mouse C-peptide 2 ELISA kit (Millipore), according to manufacturer's instructions. […] At termination of experiments whole blood was collected in EDTA-coated tubes (BD Biosciences) by cardiac puncture. […] Mouse C-peptide was assayed with Rat/Mouse C-peptide 2 ELISA kit (Millipore) according to manufacturer's instructions. […] The lower detection limit of the assay was 2 pM. […] Plate wells were coated with a mouse monoclonal anti-insulin antibody OXI005 (Novo Nordisk A/S) coupled to acceptor beads. […] Ten μl of this dilution were added to the wells. […] The lower detection limit of the assay was 233 pM.

[2] = Blood glucose (pharmacodynamics) after sc injection in DIO-mice; format: in vivo, mouse; settings: 600 nmol/kg sc, n = 8
From the text: Blood was collected by puncture of the saphenous vein and blood glucose measured using a OneTouch Ultra Glucometer (LifeScan, Inc., Milpitas, CA, USA).

[3] = system: MCF-7 cells; assay: MTT cell proliferation assay, MCF-7 cells; format: cell-based, human; settings: 24 h, 0.1% (v/v) serum, 0.001 to 1000 nM, three independent experiments with four replicates
Description: Effect of test compounds on proliferation was assessed with 3-(4,5-dimethylthiazol-2-yl)-2,5-diphenyl tetrazolium bromide (MTT) assays, essentially as described previously. In brief, MC38 cells were plated in 96-well plates (5,000 cells per well) in growth medium. […] Data for relative cell numbers from the three repeated experiments, each with four replicate samples per condition, were then used to fit dose-response curves using GraphPad Prism version 6.0 (GraphPad Software Inc., La Jolla, CA, USA). Cell proliferation experiments were done with MCF-7 cells as described for MC38 cells, except that 20,000 cells were plated per well. See Materials S1 and Figure S1 for detailed supplementary information regarding cell proliferation experiments.
In initial tests the association between number of cells and absorbance at 570 nm measured in an MTT assay was examined after incubation of MC38 cells with MTT for 3 h, 3 h after plating different number of cells per well, i.e., the total incubation period was 6 h. As expected there was a highly linear relationship between absolute number of cells and the measured absorbance (Figure S1). […] After incubation for 1 day cells were rinsed in PBS (room temperature) and then starvation medium was added. […] Control samples were treated with starvation medium only. After treatment for 21 h, 10 µl stock solution of MTT dissolved in PBS (5.0 mg/ml) was added to each well, and incubation was continued for 3 h so treatment with test compounds in total lasted 24 h. At the end of the treatment period medium with test compounds was removed and formazan crystals were suspended by adding 100 µl 0.04 M HCl dissolved in isopropanol to each well and absorbance was thereafter read at 570 nm using a Emax PC plate reader (Molecular Devices LLC, Sunnyvale, CA, USA). Each treatment was done with four replicate samples and three independent experiments were performed. In each experiment the absorbance was normalized to the mean absorbance in the untreated control samples. […]

Substance	Plasma elimination half-life (t½) ([1]; mouse, in vivo, sc)	Effect on blood glucose [2]	Time until blood glucose returned to basal levels [2]	Ranking according to mitogenic potency (MTT assay) [3]	Plasma elimination half-life (t½) ([1]; DIO-mice, 600 nmol/kg sc, estimated from plasma concentrations […] min, 1 h and 6 h after injection)	Cmax (plasma) ([1]; DIO-mice, 600 nmol/kg sc, plasma, LOCI / wash-LOCI / ELISA)	Cmax relative to plasma concentrations of endogenous mouse insulin in hyperinsulinemic DIO-mice ([1]; mouse, in vivo, sc)	Time of maximal plasma concentration ([1]; mouse, in vivo, sc)
IGF-1: recombinant human IGF-1 (Increlex, IPSEN Pharma GmbH)	approximately 70 min	rapidly lowered blood glucose	3 to 4 h	IGF-1>X10>HI	–	–	–	–
human insulin [HI]	–	rapidly lowered blood glucose	3 to 4 h	IGF-1>X10>HI	approximately 30 min	approximately 1000 nM	–	–
insulin analog B10Asp [X10]	approximately 30 min	rapidly lowered blood glucose	3 to 4 h	IGF-1>X10>HI	–	–	approximately 1000 fold	15 min

From paper PMC3832545 (PLoS ONE, 2013)
